In PubChem BioAssay (NCI):
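Assay format: 96-well plates, 48-hour exposure. The concentration for 50% growth inhibition is given as GI50. TGI denotes the concentration required for complete inhibition of growth.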

Tests used:
Test in all cases: NCI tumour cell line growth inhibition, 48 h
[1] = test system: IGROV1 ovarian
[2] = test system: RXF 393 renal
[3] = test system: SK-OV-3 ovarian
[4] = test system: SF-539 CNS
[5] = test system: NCI-H522 lung
[6] = test system: SK-MEL-2 melanoma
[7] = test system: SF-295 CNS
[8] = test system: SK-MEL-5 melanoma
[9] = test system: OVCAR-5 ovarian
[10] = test system: MALME-3M melanoma
[11] = test system: HS 578T breast
[12] = test system: TK-10 renal
[13] = test system: UACC-62 melanoma
[14] = test system: HCT-15 colon
[15] = test system: NCI-H460 lung
[16] = test system: A549 NSCLC
[17] = test system: UACC-257 melanoma
[18] = test system: OVCAR-4 ovarian
[19] = test system: UO-31 renal
[20] = test system: CAKI-1 renal
[21] = test system: KM12 colon
[22] = test system: RPMI-8226 leukemia
[23] = test system: CCRF-CEM leukemia
[24] = test system: ACHN renal
[25] = test system: SNB-19 CNS
[26] = test system: MDA-MB-435
[27] = test system: T-47D breast
[28] = test system: A498 renal
[29] = test system: SF-268 CNS
[30] = test system: HL-60(TB) leukemia
[31] = test system: HCC-2998 colon
[32] = test system: U251 CNS
[33] = test system: SR leukemia
[34] = test system: SW-620 colon
[35] = test system: HCT-116 colon
[36] = test system: HOP-92 NSCLC
[37] = test system: MDA-MB-231 breast
[38] = test system: BT-549 breast
[39] = test system: MOLT-4 leukemia
[40] = test system: PC-3 prostate
[41] = test system: NCI-H226 lung
[42] = test system: K-562 leukemia
[43] = test system: EKVX NSCLC
[44] = test system: SK-MEL-28 melanoma
[45] = test system: MCF7 breast
[46] = test system: LOX IMVI melanoma
[47] = test system: NCI-H23 lung
[48] = test system: NCI/ADR-RES ovarian
[49] = test system: OVCAR-3 ovarian
[50] = test system: 786-0 renal
[51] = test system: SN12C renal
[52] = test system: DU-145 prostate
[53] = test system: COLO 205 colon
[54] = test system: OVCAR-8 ovarian
[55] = test system: HT29 colon

CCCCC[C@H](O)/C=C/[C@@H]1[C@@H](C/C=C\CCCC(=O)O)[C@@H](O)C[C@H]1O
GI50 [1]: > 100 µM
TGI [1]: > 100 µM
GI50 [2]: > 100 µM
TGI [2]: > 100 µM
GI50 [3]: > 100 µM
TGI [3]: > 100 µM
GI50 [4]: > 100 µM
TGI [4]: > 100 µM
GI50 [5]: > 100 µM
TGI [5]: > 100 µM
GI50 [6]: > 100 µM
TGI [6]: > 100 µM
GI50 [7]: > 100 µM
TGI [7]: > 100 µM
GI50 [8]: > 100 µM
TGI [8]: > 100 µM
GI50 [9]: > 100 µM
TGI [9]: > 100 µM
GI50 [10]: > 100 µM
TGI [10]: > 100 µM
GI50 [11]: > 100 µM
TGI [11]: > 100 µM
GI50 [12]: > 100 µM
TGI [12]: > 100 µM
GI50 [13]: > 100 µM
TGI [13]: > 100 µM
GI50 [14]: > 100 µM
TGI [14]: > 100 µM
GI50 [15]: > 100 µM
TGI [15]: > 100 µM
GI50 [16]: > 100 µM
TGI [16]: > 100 µM
GI50 [17]: > 100 µM
TGI [17]: > 100 µM
GI50 [18]: > 100 µM
TGI [18]: > 100 µM
GI50 [19]: > 100 µM
TGI [19]: > 100 µM
GI50 [20]: > 100 µM
TGI [20]: > 100 µM
GI50 [21]: > 100 µM
TGI [21]: > 100 µM
GI50 [22]: > 100 µM
TGI [22]: > 100 µM
GI50 [23]: > 100 µM
TGI [23]: > 100 µM
GI50 [24]: > 100 µM
TGI [24]: > 100 µM
GI50 [25]: > 100 µM
TGI [25]: > 100 µM
GI50 [26]: > 100 µM
TGI [26]: > 100 µM
GI50 [27]: > 100 µM
TGI [27]: > 100 µM
GI50 [28]: > 100 µM
TGI [28]: > 100 µM
GI50 [29]: > 100 µM
TGI [29]: > 100 µM
GI50 [30]: > 100 µM
TGI [30]: > 100 µM
GI50 [31]: > 100 µM
TGI [31]: > 100 µM
GI50 [32]: > 100 µM
TGI [32]: > 100 µM
GI50 [33]: > 100 µM
TGI [33]: > 100 µM
GI50 [34]: > 100 µM
TGI [34]: > 100 µM
GI50 [35]: > 100 µM
TGI [35]: > 100 µM
GI50 [36]: > 100 µM
TGI [36]: > 100 µM
GI50 [37]: > 100 µM
TGI [37]: > 100 µM
GI50 [38]: > 100 µM
TGI [38]: > 100 µM
GI50 [39]: > 100 µM
TGI [39]: > 100 µM
GI50 [40]: > 100 µM
TGI [40]: > 100 µM
GI50 [41]: > 100 µM
TGI [41]: > 100 µM
GI50 [42]: > 100 µM
TGI [42]: > 100 µM
GI50 [43]: > 100 µM
TGI [43]: > 100 µM
GI50 [44]: > 100 µM
TGI [44]: > 100 µM
GI50 [45]: > 100 µM
TGI [45]: > 100 µM
GI50 [46]: > 100 µM
TGI [46]: > 100 µM
GI50 [47]: > 100 µM
TGI [47]: > 100 µM
GI50 [48]: > 100 µM
TGI [48]: > 100 µM
GI50 [49]: > 100 µM
TGI [49]: > 100 µM
GI50 [50]: > 100 µM
TGI [50]: > 100 µM
GI50 [51]: > 100 µM
TGI [51]: > 100 µM
GI50 [52]: > 100 µM
TGI [52]: > 100 µM
GI50 [53]: > 100 µM
TGI [53]: > 100 µM
GI50 [54]: > 100 µM
TGI [54]: > 100 µM
GI50 [55]: > 100 µM
TGI [55]: > 100 µM
